Reference: patent US20130273057A1, “METHODS AND COMPOSITIONS FOR THE TREATMENT AND DIAGNOSIS OF VASCULAR INFLAMMATORY DISORDERS OR ENDOTHELIAL CELL DISORDERS” (Beth Israel Deaconess Medical Center, Inc., priority 2007, published 2013)

How the values were obtained:
[1] = tested on: myosin light chain (MLC); assay: Western blot of MLC phosphorylation upon thrombin stimulation; type: cell-based, human; conditions: 10 μM SU5416 pretreatment; thrombin 5 minutes; serine 19
Method: (§1) FIGS. 14A-14C show transactivation of VEGFR is critical for tyrosine phosphorylation of VE-cadherin and p120 but not involved in MLC signaling. […] To preserve tyrosine phosphorylation, cells were then treated with 2 mM Na3VO4/2 mM H2O2 for 5 mins prior to lysis (Lampugnani, Corada et al., J. Cell Sci. 110 (Pt 17): 2065-2077, (1997)). A portion of the clarified total lysates was analyzed by western blot using an anti-phospho MLC antibody. The membrane was stripped and reblotted with anti GAPDH antibody. In FIG. 14B VE-cadherin was immunoprecipitated from lysates prepared in FIG. 14A. Tyrosine phosphorylation was detected by 4G10 antibody (FIG. 14B, i). The membrane was stripped and reblotted with an anti VE-cadherin antibody (FIG. 14B, ii). […] 4G10 immunoprecipitates were fractioned by SDS-PAGE, and p120 was detected by western blot. (−): No thrombin; (T): 5 U/ml thrombin. Molecular weights are in kDa.
(§2) (MLC) upon thrombin stimulation, a procedure derived from a published protocol was used (Ukropec et al., J. Biol. Chem. 275: 5983-5986, (2000)). […] Cells were then washed with PBS containing Mg^2+/Ca^2+ (GIBCO 14040-141) supplemented with 1 mM Na3VO4 and 0.2 mM H2O2 at room temperature for 5 mins. […] After SDS-PAGE, phosphorylation of VE-cadherin was detected by western blotting with the antibody 4G10. […]

[2] = tested on: HUVEC monolayer; assay: Permeability assay, FITC-BSA across HUVEC monolayer in Transwell; type: cell-based, human; conditions: 10 μM SU5416 1 hour, 5 U/ml thrombin 10 mins
Method: FIG. 12 is a graph showing the thrombin induced-endothelial barrier dysfunction requires VEGFR activity. Confluent HUVEC monolayers were established in Transwell inserts. […] After 10 minutes of stimulation, fluorescein-labeled BSA that had diffused to the lower chamber was detected by fluorescence measurement and used as a surrogate marker of endothelial permeability. T: thrombin; SU: SU5416.
Permeability assay: 50,000 HUVECs were seeded in a Transwell insert (Corning 3496) in 100 μl of full EGM2-MV medium. EGM2-MV medium (600 μl) was added to the lower chamber. An endothelial monolayer was allowed to establish overnight. […] The inserts were then immediately transferred to a new well containing 500 μl PBS (with Mg^2+/Ca^2+; GIBCO 14040-141). After 10 mins of incubation, the Transwells were removed, and fluorescence of the PBS in the lower chamber was measured using a CytoFluor Multiwell Plate Reader (Series 4000) with the following settings: excitation λ 485/20 […], emission λ 530/25. Immunostaining: LabTek slide chambers (177429) were precoated with 50 μg/ml rat tail collagen type-1 (BD Biosciences, 354236) at 37° C. for 1 hour according to the manufacturer's protocol. […] Images were recorded using a fluorescence microscope (Nikon Corporation, Tokyo, Japan) and coupled to a Spot RT camera (Diagnostic Instruments Inc, Sterling Heights, Mich.). […]

[3] = tested on: MER; assay: Thrombin-induced receptor tyrosine kinase phosphorylation in HUVECs (4G10 immunoprecipitation/western blot); type: cell-based, human; conditions: confluent HUVECs pretreated with 10 μM SU5416 for 2 hrs; 5 U/ml thrombin
From the text: (§3) (−): No thrombin; (T): 5 U/ml thrombin. Molecular weights are in kDa.

[4] = tested on: VEGFR2; assay: as above; type: cell-based, human; conditions: confluent HUVECs pretreated with 10 μM SU5416 for 2 hrs; 5 U/ml thrombin
From the text: as §3

[5] = tested on: Tie-2; assay: as above; type: cell-based, human; conditions: confluent HUVECs pretreated with 10 μM SU5416 for 2 hrs; 5 U/ml thrombin
From the text: as §3

[6] = tested on: Tie-1 endodomain; assay: as above; type: cell-based, human; conditions: confluent HUVECs pretreated with 10 μM SU5416 for 2 hrs; 5 U/ml thrombin
From the text: as §3

[7] = tested on: FGF R; conditions: cited from earlier work
[8] = tested on: PAR-1 induced vascular leak in mice; assay: PAR-1 induced vascular leak in mouse ears (Evan blue); type: in vivo; conditions: ear pretreated with 10 μl of 10 μM SU5416 for one hour; PAR-1 activating peptide and Evan blue by tail vein; about 15 minutes
Method: Then 20 μl of 5 mM PAR-1 activating peptide and 500 μl 0.1% Evan blue was injected into the mouse by tail vein injection. About 15 minutes later the extent of vascular leaks in the ears was documented by photography.

[9] = tested on: several xenograph models; conditions: intra-peritoneal injection twice weekly, 50 mg/kg; cited from earlier work
[10] = tested on: VE-cadherin; assay: VE-cadherin tyrosine phosphorylation (immunoprecipitation/4G10 western blot); type: cell-based, human; conditions: 10 μM SU5416 pretreatment
Method: as §1, §2

[11] = biological target: VEGFR-2 (Homo sapiens, UniProt P35968); conditions: cited from earlier work
[12] = tested on: HUVEC monolayer; assay: Immunostaining of VE-cadherin and actin stress fiber, endothelial gap formation; type: cell-based, human; conditions: 10 μM SU5416 2 hours
Method: VE-cadherin, actin stress fiber, and nuclei were stained with anti VE-cadherin antibody (green), phalloidin (red), and DAPI (blue), respectively.
EGM2-MV medium (600 μl) was added to the lower chamber. An endothelial monolayer was allowed to establish overnight. […] Each slide chamber was seeded with 200,000 HUVECs in one ml of EGM2-MV medium. An endothelial monolayer was allowed to established overnight. […] After 15 mins of stimulation, cells were fixed with 4% paraformaldehyde in PBS for 15 mins and permeabilized with 0.5% Triton X-100 in PBS for 5 mins. […] After 3 washes with 0.5% FBS/PBS, the samples were mounted in a drop of ProLong Gold antifade reagent with DAPI (Probes, P36931). Images were recorded using a fluorescence microscope (Nikon Corporation, Tokyo, Japan) and coupled to a Spot RT camera (Diagnostic Instruments Inc, Sterling Heights, Mich.). Western blotting: To examine the phosphorylation status of VE-Cadherin and myosin light chain

[13] = tested on: p120; assay: p120 tyrosine phosphorylation (4G10 immunoprecipitation/western blot); type: cell-based, human; conditions: 10 μM SU5416 2 hrs
Method: as §1, §2

[14] = tested on: PDGF receptor; conditions: relative to VEGFR-2; cited from earlier work
[15] = thrombin or PAR-1 AP 30 μM, 15 mins

VEGFR-2, sequence (P35968 20-1356, species assumed): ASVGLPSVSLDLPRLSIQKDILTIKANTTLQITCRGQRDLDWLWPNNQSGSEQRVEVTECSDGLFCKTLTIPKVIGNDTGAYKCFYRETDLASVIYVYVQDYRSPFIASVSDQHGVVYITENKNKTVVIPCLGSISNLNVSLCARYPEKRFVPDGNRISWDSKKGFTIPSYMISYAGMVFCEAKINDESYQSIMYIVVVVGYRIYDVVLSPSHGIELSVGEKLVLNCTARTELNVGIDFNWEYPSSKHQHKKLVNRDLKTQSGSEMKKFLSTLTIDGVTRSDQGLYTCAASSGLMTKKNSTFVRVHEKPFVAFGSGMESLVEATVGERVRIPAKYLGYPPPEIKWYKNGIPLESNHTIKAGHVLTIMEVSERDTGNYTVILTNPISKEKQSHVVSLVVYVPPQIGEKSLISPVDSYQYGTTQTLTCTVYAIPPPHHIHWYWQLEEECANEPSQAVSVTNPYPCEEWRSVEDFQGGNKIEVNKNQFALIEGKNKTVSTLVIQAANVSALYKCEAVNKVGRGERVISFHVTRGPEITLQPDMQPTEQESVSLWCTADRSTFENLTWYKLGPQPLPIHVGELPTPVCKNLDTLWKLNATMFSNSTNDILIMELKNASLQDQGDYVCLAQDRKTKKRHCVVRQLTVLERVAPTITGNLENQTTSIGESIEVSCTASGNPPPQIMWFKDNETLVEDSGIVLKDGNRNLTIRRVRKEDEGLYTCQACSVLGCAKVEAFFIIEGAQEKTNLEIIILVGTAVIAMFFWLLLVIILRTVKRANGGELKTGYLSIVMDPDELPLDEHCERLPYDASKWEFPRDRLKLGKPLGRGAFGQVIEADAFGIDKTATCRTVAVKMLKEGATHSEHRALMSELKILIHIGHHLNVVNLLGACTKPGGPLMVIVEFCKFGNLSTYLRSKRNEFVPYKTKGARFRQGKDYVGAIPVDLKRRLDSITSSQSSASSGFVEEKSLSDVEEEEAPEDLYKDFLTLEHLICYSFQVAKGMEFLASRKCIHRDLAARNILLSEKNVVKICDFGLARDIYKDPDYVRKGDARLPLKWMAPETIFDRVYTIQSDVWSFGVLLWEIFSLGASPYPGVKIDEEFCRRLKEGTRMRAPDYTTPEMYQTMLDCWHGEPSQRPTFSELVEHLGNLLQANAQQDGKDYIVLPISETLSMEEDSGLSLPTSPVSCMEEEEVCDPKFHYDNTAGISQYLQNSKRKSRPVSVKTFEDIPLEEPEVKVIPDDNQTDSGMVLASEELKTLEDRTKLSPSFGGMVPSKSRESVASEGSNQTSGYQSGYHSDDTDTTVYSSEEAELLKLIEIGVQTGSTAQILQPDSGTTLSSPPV

## Cc1cc(C)c(/C=C2\C(=O)Nc3ccccc32)[nH]1 [SU5416]
[1]
  serine phosphorylation of MLC induced by thrombin: did not affect
[2]
  thrombin-induced increase in endothelial permeability: completely blocked
[3]
  activation of MER by thrombin stimulation: completely blocked
[4]
  phosphorylation of VEGFR2 induced by thrombin: significantly attenuated
[5]
  thrombin-induced phosphorylation of Tie-2: partially blocked
[6]
  thrombin-induced phosphorylation of Tie-1 endodomain: partially blocked
[7]
  inhibition of FGF R: poor inhibitor
[8]
  PAR-1 induced vascular leak in mice: inhibited
[9]
  tumor progression in xenograph models: effectively blocks
[10]
  thrombin-induced tyrosine phosphorylation of VE-cadherin: significantly blocked
[11]
  blocking VEGFR-2 function in cells: most effective
[12]; thrombin 15 mins
  stress fiber formation induced by thrombin: did not block
[12]; [15]
  VE-cadherin disruption induced by thrombin or PAR-1 AP: completely blocked
  intercellular gap formation induced by thrombin or PAR-1 AP: no intercellular gaps formed
[13]
  thrombin-induced tyrosine phosphorylation of p120: significantly blocked
[14]
  inhibition of PDGF receptor in cell based assays, times less effective: 20 times
